Experiments:
RIPK2 (KD)/XIAP (BIR2) = molecular target: T1, RIPK2 (KD)/XIAP (BIR2) (Homo sapiens, UniProt O43353); experiment: RIPK2-XIAP binding competition PPI assay (TR-FRET); conditions: for Emax: 50 nM of GSK583 = -100% activity, read-out: PPI Amax; for IC50: GST-RIPK2 / His-XIAP (BIR2)-avi, 120 min at 23° C.
T1 construct: made in house; host or cells: baculovirus-infected Sf9 cells
Excerpt: The ability of selected compounds of Formula (I) to inhibit the binding of an His-XIAP (BIR2)-avi fusion protein to a GST-RIPK2 fusion protein was quantified employing the TR-FRET-based competition assay as described in the following paragraphs.
Recombinant fusion protein of N-terminal Glutathione-S-Transferase (GST) and a fragment of human RIPK2 (amino acids 1-310 of accession number 043353), expressed in baculovirus infected Sf9 cells, purified via glutathione affinity chromatography, was used as GST-RIPK2 fusion protein. Recombinant fusion protein of N-terminal 6xHistidine (His), a fragment of human XIAP (amino acids 152-231 of accession number P98170), and C-terminal avi tag, expressed in baculovirus infected Sf9 cells, purified via Nickel NTA affinity chromatography, was used as the His-XIAP (BIR2)-avi fusion protein.
For the assay, a working solution of 1 nM GST-RIPK2, 25 nM His-XIAP (BIR2)-avi, 6 nM Anti-His-XL665 […] (Revvity Catalogue No. 61HISXLB), and 0.5 nM Anti-GST-Tb(Revvity Catalogue No. 61GSTTLB) in 25 mM Tris-HCl 7.5, 0.5 mM ethylene glycol-bis(2-aminoethylether)-N,N,N′,N′-tetraacetic acid (EGTA), 10 mM magnesium chloride (MgCl2), 2.5 mM dithiothreitol (DTT), 0.01% (w/v) bovine serum albumin (BSA), 0.005% (w/v) Pluronic F-127 (Sigma), 0.5 mM sodium ortho-vanadate, 5 mM-Glycerophosphate disodium salt hydrate (BGP) was prepared. 50 nL of a 100-fold concentrated solution of each test compound in DMSO was dispensed via acoustic dispensing into a white low volume 384-well microtiter plate (Perkin Elmer Catalogue No. 6008280). Subsequently, 5 μL of the assay working solution were added.
The resulting mixture was incubated 120 min at 23° C. Subsequently, the amount of complex formed by the GST-RIPK2, XIAP (BIR2)-avi, Anti-His-XL665, and Anti-GST-Tb was evaluated by measurement of the resonance energy transfer from the Tb-cryptate to the XL665. Therefore, the fluorescence emissions at 520 nm and 665 nm after excitation at 337 nm were measured in a TR-FRET reader, e.g. a Pherastar FS(BMG Labtechnologies, Offenburg, Germany) or an Envision (PerkinElmer). The ratio of the emissions at 665 nm and at 520 nm was taken as the measure of the amount of the complex. The data were normalized (assay reaction without inhibitor=0% activity, 50 nM of GSK583=−100% activity).

[1] = test system: THP1-Dual cells, NF-κB pathway (SEAP); experiment: THP-1 Dual cell SEAP assay (L18-MDP stimulated); type: cell-based; conditions: Homo sapiens, 10 ng/mL L18-MDP, 20-24 h, SEAP readout, read-out: IFNγ THP1 IC50
Protocol: THP1-Dual™ cells (InvivoGen Cat #thpd-nfis) allow simultaneous assessment of the NF-κB pathway, by monitoring the activity of secreted embryonic alkaline phosphatase (SEAP) as well as the IRF pathway, by assessing the activity of a secreted luciferase (Lucia). Cells were cultured according to manufacturers' recommendations. For the assay, cell concentration was adjusted to 7.14×10^5 cells/mL in assay media (RPMI 1640, 2 mM L-Glutamine, 25 mM HEPES, 10% fetal bovine serum (heat-inactivated for 30 min at 56° C.), Pen-Strep (100 U/mL)) and 35 μL of cell suspension (˜25,000 cells) per well were added to a flat bottom 384-well plate (white opaque). Plate was centrifuged at 300 g for 2 min, compounds were added in serial dilution series according to the plate layout (volumes ˜500 nL-0.0152 nL) and plate was incubated at 37° C. in 5% CO2 for 30 min. Using assay media, a L18-MDP stock solution, that results in a final concentration of 10 ng/mL L18-MDP in each well when adding 15 μL to each well, was prepared. 15 μL of L18-MDP stock solution was added to each well, while 15 μL of assay media was added to the negative control wells. Plates were subsequently incubated at 37° C. in 5% CO2 overnight (20-24 h).
For the SEAP assay: without disturbing the cells at the bottom of the well, 15 μL supernatant was transferred to a clear 384-well flat bottom plate and 35 μL QUANTI-Blue Solution per well was added. Following a 2 h incubation at 37° C., the optical density (OD) was measured at 620-655 nm using a microplate reader (PheraStar FS microplate reader with protocol for OD 620-655 nm).
Values of media-only wells were subtracted and % inhibition for each compound concentration relative to the DMSO/L18-MDP-treated controls was calculated. Inhibition values+/−SD were fitted by non-linear regression using Prism software (GraphPad PRISM Software) to calculate IC50 values.

T1 sequence (O43353 1-310): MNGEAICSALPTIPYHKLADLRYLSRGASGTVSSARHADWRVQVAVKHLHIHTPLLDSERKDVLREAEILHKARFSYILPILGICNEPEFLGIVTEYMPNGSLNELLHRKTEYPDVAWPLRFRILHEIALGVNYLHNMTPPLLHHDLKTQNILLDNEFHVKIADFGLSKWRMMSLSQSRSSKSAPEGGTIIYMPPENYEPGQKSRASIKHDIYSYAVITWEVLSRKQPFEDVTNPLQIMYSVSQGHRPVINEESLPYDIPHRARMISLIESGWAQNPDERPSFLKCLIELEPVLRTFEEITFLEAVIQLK

Row | SMILES | Emax (RIPK2 (KD)/XIAP (BIR2)) | IC50 (RIPK2 (KD)/XIAP (BIR2)) | IC50 [1]
1 | COc1cc2ncc(-c3cc(C(=O)NCc4n[nH]c5cccc(F)c45)n(C)n3)n2cc1S(=O)(=O)C(C)(C)C [Example 19, 3-(6-(tert-butylsulfonyl)-7-methoxyimidazo[1,2-a]pyridin-3-yl)-N-((4-fluoro-1H-indazol-3-yl)methyl)-1-methyl-1H-pyrazole-5-carboxamide] | ≥ 80% | < 0.01 µM | 0.1 to 0.5 µM
2 | COc1cc2ncc(-c3cc(C(=O)NCc4cccc5ccnn45)n(C)n3)n2cc1S(=O)(=O)C(C)(C)C [Example 20, 3-(6-(tert-butylsulfonyl)-7-methoxyimidazo[1,2-a]pyridin-3-yl)-1-methyl-N-(pyrazolo[1,5-a]pyridin-7-ylmethyl)-1H-pyrazole-5-carboxamide] | ≥ 80% | 0.1 to 1 µM | > 2.5 µM
3 | COc1cc2ncc(-c3cc(C(=O)NCc4cccn5ccnc45)n(C)n3)n2cc1S(=O)(=O)C(C)(C)C [Example 21, 3-(6-(tert-butylsulfonyl)-7-methoxyimidazo[1,2-a]pyridin-3-yl)-N-(imidazo[1,2-a]pyridin-8-ylmethyl)-1-methyl-1H-pyrazole-5-carboxamide] | ≥ 80% | 0.1 to 1 µM | > 2.5 µM
4 | COc1cc2ncc(-c3cc(C(=O)NCc4cn5ccccc5n4)n(C)n3)n2cc1S(=O)(=O)C(C)(C)C [Example 22, 3-(6-(tert-butylsulfonyl)-7-methoxyimidazo[1,2-a]pyridin-3-yl)-N-(imidazo[1,2-a]pyridin-2-ylmethyl)-1-methyl-1H-pyrazole-5-carboxamide] | ≤ 30% | > 1 µM | > 2.5 µM
5 | COc1cc2ncc(-c3cc(C(=O)NCc4cc5ccccn5n4)n(C)n3)n2cc1S(=O)(=O)C(C)(C)C [Example 23, 3-(6-(tert-butylsulfonyl)-7-methoxyimidazo[1,2-a]pyridin-3-yl)-1-methyl-N-(pyrazolo[1,5-a]pyridin-2-ylmethyl)-1H-pyrazole-5-carboxamide] | ≤ 30% | > 1 µM | 0.5 to 2.5 µM
6 | COc1cc2ncc(-c3cc(C(=O)NCc4ccn(C)n4)n(C)n3)n2cc1S(=O)(=O)C(C)(C)C [Example 24, 3-(6-(tert-butylsulfonyl)-7-methoxyimidazo[1,2-a]pyridin-3-yl)-1-methyl-N-((1-methyl-1H-pyrazol-3-yl)methyl)-1H-pyrazole-5-carboxamide] | ≥ 80% | 0.1 to 1 µM | 0.5 to 2.5 µM
7 | COc1cc2ncc(-c3cc(C(=O)NCc4cnn(C)c4)n(C)n3)n2cc1S(=O)(=O)C(C)(C)C [Example 25, 3-(6-(tert-butylsulfonyl)-7-methoxyimidazo[1,2-a]pyridin-3-yl)-1-methyl-N-((1-methyl-1H-pyrazol-4-yl)methyl)-1H-pyrazole-5-carboxamide] | ≤ 30% | > 1 µM | > 2.5 µM
8 | COc1cc2ncc(-c3cc(C(=O)NCc4ccccn4)n(C)n3)n2cc1S(=O)(=O)C(C)(C)C [Example 26, 3-(6-(tert-butylsulfonyl)-7-methoxyimidazo[1,2-a]pyridin-3-yl)-1-methyl-N-(pyridin-2-ylmethyl)-1H-pyrazole-5-carboxamide] | ≥ 80% | 0.1 to 1 µM | 0.5 to 2.5 µM
9 | COc1cc2ncc(-c3cc(C(=O)NCc4cccnc4)n(C)n3)n2cc1S(=O)(=O)C(C)(C)C [Example 27, 3-(6-(tert-butylsulfonyl)-7-methoxyimidazo[1,2-a]pyridin-3-yl)-1-methyl-N-(pyridin-3-ylmethyl)-1H-pyrazole-5-carboxamide] | 55 to 80% | > 1 µM | > 2.5 µM
10 | COc1cc2ncc(-c3cc(C(=O)NCc4ccccc4)n(C)n3)n2cc1S(=O)(=O)C(C)(C)C [Example 28, N-benzyl-3-(6-(tert-butylsulfonyl)-7-methoxyimidazo[1,2-a]pyridin-3-yl)-1-methyl-1H-pyrazole-5-carboxamide] | ≥ 80% | 0.1 to 1 µM | 0.5 to 2.5 µM
11 | COc1cc2ncc(-c3cc(C(=O)NCc4ccncc4)n(C)n3)n2cc1S(=O)(=O)C(C)(C)C [Example 29, 3-(6-(tert-butylsulfonyl)-7-methoxyimidazo[1,2-a]pyridin-3-yl)-1-methyl-N-(pyridin-4-ylmethyl)-1H-pyrazole-5-carboxamide] | ≤ 30% | > 1 µM | > 2.5 µM
12 | C[C@@H](NC(=O)c1cc(-c2cnc3cc(OCCO)c(S(=O)(=O)C(C)(C)C)cn23)nn1C)c1ccccc1 [Example 32, (R)-3-(6-(tert-butylsulfonyl)-7-(2-hydroxyethoxy)imidazo[1,2-a]pyridin-3-yl)-1-methyl-N-(1-phenylethyl)-1H-pyrazole-5-carboxamide] | ≥ 80% | < 0.01 µM | < 0.1 µM
13 | COc1cc2ncc(-c3cc(C(=O)N[C@H](C)C4CC4)n(C)n3)n2cc1S(=O)(=O)C(C)(C)C [Example 35, (R)-3-(6-(tert-butylsulfonyl)-7-methoxyimidazo[1,2-a]pyridin-3-yl)-N-(1-cyclopropylethyl)-1-methyl-1H-pyrazole-5-carboxamide] | 30 to 55% | > 1 µM | > 2.5 µM
14 | COc1cc2ncc(-c3cc(C(=O)N[C@@H](C)C4CC4)n(C)n3)n2cc1S(=O)(=O)C(C)(C)C [Example 36, (S)-3-(6-(tert-butylsulfonyl)-7-methoxyimidazo[1,2-a]pyridin-3-yl)-N-(1-cyclopropylethyl)-1-methyl-1H-pyrazole-5-carboxamide] | 30 to 55% | > 1 µM | > 2.5 µM
15 | COc1cc2ncc(-c3cc(C(=O)NC(C)C)n(C)n3)n2cc1S(=O)(=O)C(C)(C)C [Example 37, 3-(6-(tert-butylsulfonyl)-7-methoxyimidazo[1,2-a]pyridin-3-yl)-N-isopropyl-1-methyl-1H-pyrazole-5-carboxamide] | 30 to 55% | > 1 µM | > 2.5 µM
16 | COc1cc2ncc(-c3cc(C(=O)NCC4CC4)n(C)n3)n2cc1S(=O)(=O)C(C)(C)C [Example 38, 3-(6-(tert-butylsulfonyl)-7-methoxyimidazo[1,2-a]pyridin-3-yl)-N-(cyclopropylmethyl)-1-methyl-1H-pyrazole-5-carboxamide] | 30 to 55% | > 1 µM | > 2.5 µM
17 | COc1cc2ncc(-c3cc(C(=O)NCC4CCC4)n(C)n3)n2cc1S(=O)(=O)C(C)(C)C [Example 39, 3-(6-(tert-butylsulfonyl)-7-methoxyimidazo[1,2-a]pyridin-3-yl)-N-(cyclobutylmethyl)-1-methyl-1H-pyrazole-5-carboxamide] | ≥ 80% | 0.1 to 1 µM | > 2.5 µM
18 | COc1cc2ncc(-c3cc(C(=O)NCC4CCCC4)n(C)n3)n2cc1S(=O)(=O)C(C)(C)C [Example 40, 3-(6-(tert-butylsulfonyl)-7-methoxyimidazo[1,2-a]pyridin-3-yl)-N-(cyclopentylmethyl)-1-methyl-1H-pyrazole-5-carboxamide] | ≥ 80% | 0.1 to 1 µM | > 2.5 µM

From patent US20260091026A1, “METHODS OF TREATING INFLAMMATORY DISEASES” (INTERLINE THERAPEUTICS, INC., priority 2023, published 2026)
